{
  "source": "patent US20260256777A1",
  "about": "“DEGRADANT COMPOUND IN A MEDICAMENT” (VISUS THERAPEUTICS, INC., priority 2020, published 2026)",
  "key": {"[1]": {"test": "Forced degradation samples analysed by prototype HPLC method", "assay_type": "physicochemical", "method": "A new prototype HPLC method has been developed to study early eluting peaks not well separated by the method described in Example 3, Table 3. The method better separates early eluting brimonidine-related impurities. All sample solutions from the Phase I and II stress studies were analyzed with the prototype method. […] This was consistent with the analysis results per the method described in Example 4, Table 6. Another unknown impurity, impurity B, was also observed in the chromatogram for the 0.1 M NaOH and heat-stressed combined API sample at RT 3.44 min with a level of ~0.05% relative to the brimonidine peak area. The extracted UV spectrum for impurity B is consistent with the UV Spectrum previously observed in stability samples."}, "[2]": {"test": "Forced degradation of combined brimonidine tartrate and carbachol APIs, LC-PDA analysis", "assay_type": "physicochemical", "settings": "66 hours", "method": "Following the procedures shown in Table 9, the two APIs combined were stressed with moisture and heat (Sample A), 0.1 M HCl at room temperature (Sample B), 0.1 M NaOH at room temperature (Sample C), vehicle and heat (Sample D), 1 M HCl at room temperature (Sample E), and 1 M NaOH at room temperature (Sample F) for 66 hours. A drug product vehicle was stressed under heat for 66 hours as a control (Sample G). After the stress treatment was completed, all samples were removed from condition, allowed to cool to room temperatures, then neutralized where appropriate, and brought to a similar concentration level. The samples were capped and shaken until all the materials in each sample were dissolved. Then each sample solution was diluted in the HPLC method diluent used in Example 4, Table 6 and mixed well. For retention time verification purposes, a reference sample solution was also prepared using a carbachol/brimonidine six month accelerated stability sample (Table 8). The brimonidine tartrate analytical concentration for all of the degraded and the reference sample solutions was 0.1 mg/mL.\nAll of the sample solutions prepared as described in Table 9 were analyzed per the HPLC-PDA method shown in Example 4, Table 6. […] The level of the impurity present in both base-stressed samples is about 0.02% relative to that of the brimonidine peak. The extracted UV spectra for the RRT 0.91 impurity from the carbachol/brimonidine formulation (6 month accelerated stability sample) and the two base-stressed samples are similar for each.\nThe Phase I forced degradation study confirmed that the RRT 0.91 impurity was formed when the two APIs together were stressed under basic (either 0.1 M NaOH or 1 M NaOH) conditions and at room temperatures. To study temperature impact on the reaction, the two APIs, brimonidine tartrate and carbachol, were combined and stressed under both base and heat (45° C.) conditions simultaneously.\nAdditionally, to further confirm that the presence of both APIs was needed for the formation of the RRT 0.91 peak, individual API samples were also stressed in the same way. […] After the stress treatment was completed, all samples (H-M) were removed from condition, allowed to cool to room temperatures, neutralized where appropriate, and brought to a similar concentration level. The samples were capped and shaken until all the materials in each flask were dissolved. Then each sample solution was diluted in the HPLC method diluent (Example 4, Table 6) and mixed well.\nAll the base and heat-stressed sample solutions prepared as described in Table 10 were analyzed by LC-PDA analysis per the method shown in Example 4, Table 6. […] This further confirmed that the RRT 0.91 impurity was a reaction product of the two APIs."}},
  "data": [
    {"smiles": "NC(=O)NCCNC(=O)Nc1ccc2nccnc2c1Br", "note": "[Impurity B, 1-(5-bromoquinoxalin-6-yl)-3-(2-ureidoethyl)urea]", "values": [
      {"measurement": "impurity B level relative to the brimonidine peak area", "setting": "[1]; 0.1 M NaOH and heat-stressed combined API sample", "value": "~ 0.05%"},
      {"measurement": "impurity B level", "setting": "[1]; other base-stressed combined APIs", "value": "very low levels"}
    ]},
    {"smiles": "NC(=O)N1CCN=C1Nc1ccc2nccnc2c1Br", "note": "[RRT 0.91 Impurity, 2-((5-bromoquinoxalin-6-yl)amino)-4,5-dihydro-1H-imidazole-1-carboxamide]", "values": [
      {"measurement": "Relative % Peak Area for RRT 0.91 Impurity (Versus Peak Area of Brimonidine)", "setting": "[2]; 0.1M NaOH, 45° C.", "value": 0.15, "unit": "%"},
      {"measurement": "Relative % Peak Area for RRT 0.91 Impurity (Versus Peak Area of Brimonidine)", "setting": "[2]; 0.1M NaOH, room temperature", "value": 0.02, "unit": "%"},
      {"measurement": "Relative % Peak Area for RRT 0.91 Impurity (Versus Peak Area of Brimonidine)", "setting": "[2]; 0.1M NaOH, room temperature, listed as RRT 0.91 impurity", "value": "about 0.02%"},
      {"measurement": "Relative % Peak Area for RRT 0.91 Impurity (Versus Peak Area of Brimonidine)", "setting": "[2]; 1M NaOH, 45° C.", "value": 0.03, "unit": "%"},
      {"measurement": "Relative % Peak Area for RRT 0.91 Impurity (Versus Peak Area of Brimonidine)", "setting": "[2]; 1M NaOH, room temperature", "value": 0.02, "unit": "%"},
      {"measurement": "Relative % Peak Area for RRT 0.91 Impurity (Versus Peak Area of Brimonidine)", "setting": "[2]; 1M NaOH, room temperature, listed as RRT 0.91 impurity", "value": "about 0.02%"}
    ]}
  ]
}
